In ChEMBL document CHEMBL5303304, “EUbOPEN Chemogenomics Library - IncuCyte” (2023):

Key:
Format in all cases: toxicity, cell-based
U2OS = experiment: Incucyte cell viability with U2OS; conditions: human, 10 µM, compound concentration 10 uM
Fibroblast = experiment: Incucyte cell viability with human fibroblast; conditions: 10 µM, compound concentration 10 uM
HEK-293T = experiment: Incucyte cell viability with HEK293T; conditions: human, 10 µM, compound concentration 10 uM
Note: unitless GR value; below 1 slowed growth and below 0 cell loss.

Compound	Growth Rate (U2OS; 0 h, replicate number 1)	Growth Rate (U2OS; 6 h, replicate number 1)	Growth Rate (U2OS; 6 h, replicate number 2)	Growth Rate (U2OS; 12 h, replicate number 2)	Growth Rate (U2OS; 18 h, replicate number 2)	Growth Rate (U2OS; 24 h, replicate number 1)	Growth Rate (U2OS; 24 h, replicate number 2)	Growth Rate (Fibroblast; 6 h, replicate number 1)	Growth Rate (Fibroblast; 12 h, replicate number 2)	Growth Rate (Fibroblast; 18 h, replicate number 2)	Growth Rate (Fibroblast; 24 h, replicate number 1)	Growth Rate (Fibroblast; 24 h, replicate number 2)	Growth Rate (HEK-293T; 6 h, replicate number 1)	Growth Rate (HEK-293T; 6 h, replicate number 2)	Growth Rate (HEK-293T; 12 h, replicate number 1)	Growth Rate (HEK-293T; 12 h, replicate number 2)	Growth Rate (HEK-293T; 18 h, replicate number 1)	Growth Rate (HEK-293T; 18 h, replicate number 2)	Growth Rate (HEK-293T; 24 h, replicate number 1)	Growth Rate (HEK-293T; 24 h, replicate number 2)	also measured
O=C(Nc1cccc(C(F)(F)F)c1)c1cc(Cl)ccc1O	-0.07	0.96	0.71	0.59	0.41	0.28	0.27	-0.98	-0.65	-0.55	0.08	-0.46	-0.8	-0.84	-0.85	-0.56	-0.77	-0.41	-0.67	-0.3	Growth Rate (U2OS; 12 h, replicate number 1): 0.63; Growth Rate (U2OS; 18 h, replicate number 1): 0.4; Growth Rate (Fibroblast; 6 h, replicate number 2): -0.88; Growth Rate (Fibroblast; 18 h, replicate number 1): 0.8
CC(C)C[C@H](NC(=O)c1cc2ccccc2s1)C(=O)N1CCN(C(=O)[C@H](CO)NS(=O)(=O)c2ccc(Cl)cc2Cl)CC1	–	0.27	0.36	0.51	0.58	–	0.66	–	0.01	0.68	0	0.65	-0.15	-0.01	0.69	0.27	0.71	0.38	0.78	0.46	Growth Rate (U2OS; 0 h, replicate number 2): -1; Growth Rate (U2OS; 12 h, replicate number 1): 0.93; Growth Rate (U2OS; 18 h, replicate number 1): 0.95; Growth Rate (Fibroblast; 6 h, replicate number 2): -0.86; Growth Rate (Fibroblast; 12 h, replicate number 1): -0.95; Growth Rate (Fibroblast; 18 h, replicate number 1): -0.18; Growth Rate (HEK-293T; 0 h, replicate number 1): 0.99
CCn1c(-c2nonc2N)nc2c(C#CC(C)(C)O)ncc(OCC3CCCNC3)c21 (stereo not drawn)	–	–	0.47	0.86	0.84	0.96	0.9	–	0.5	0.47	0.21	0.58	-0.57	-0.49	-0.65	-0.05	-0.26	0.15	-0.03	0.13	Growth Rate (Fibroblast; 0 h, replicate number 1): -0.85; Growth Rate (Fibroblast; 6 h, replicate number 2): -0.99; Growth Rate (Fibroblast; 18 h, replicate number 1): -0.63; Growth Rate (HEK-293T; 0 h, replicate number 1): 0.09; Growth Rate (HEK-293T; 0 h, replicate number 2): 0.47
Oc1ccc(-c2nc(-c3ccncc3)c(-c3ccc(F)cc3)[nH]2)cc1 [SB-202190]	-0.88	–	–	–	–	–	–	0.11	0.62	–	–	–	–	–	–	–	–	–	–	–	Growth Rate (U2OS; 0 h, replicate number 2): -0.95; Growth Rate (Fibroblast; 0 h, replicate number 2): -0.18; Growth Rate (Fibroblast; 12 h, replicate number 1): -0.11; Growth Rate (HEK-293T; 0 h, replicate number 1): 0; Growth Rate (HEK-293T; 0 h, replicate number 2): -0.17
CCCCCCCC/C=C\CCCCCCCC(=O)NCc1ccc(O)c(OC)c1 [OLVANIL]	–	0.77	0.84	0.94	–	0.87	–	–	0.83	0.53	0.91	0.68	-0.94	–	-0.75	–	-0.47	–	-0.25	–	Growth Rate (U2OS; 18 h, replicate number 1): 0.88; Growth Rate (Fibroblast; 0 h, replicate number 1): 0.97; Growth Rate (Fibroblast; 0 h, replicate number 2): -0.71; Growth Rate (HEK-293T; 0 h, replicate number 2): 0.7
CN(C)C(=O)Cn1cc(-c2ccc(-c3nnc4ccccn34)cc2)cn1	0.43	0.9	–	0.88	0.96	0.67	0.99	0.9	0.97	0.9	–	0.99	0.81	–	0.91	–	–	–	–	–	Growth Rate (U2OS; 12 h, replicate number 1): 0.76; Growth Rate (Fibroblast; 0 h, replicate number 2): -0.65; Growth Rate (HEK-293T; 0 h, replicate number 2): 0.91
FC(F)(F)c1ccc(CNc2ccc(Cc3c[nH]c4ncc(Cl)cc34)cn2)cn1 [PEXIDARTINIB]	–	–	–	–	–	0.95	0.98	0.64	0.34	0.9	–	–	–	–	–	–	–	–	–	–	Growth Rate (Fibroblast; 0 h, replicate number 1): -1; Growth Rate (Fibroblast; 6 h, replicate number 2): 0.13; Growth Rate (Fibroblast; 12 h, replicate number 1): 0.87; Growth Rate (HEK-293T; 0 h, replicate number 2): -0.38
O=c1cc(-c2ccccc2)oc2c1ccc1ccccc12 [ALPHA-NAPHTHOFLAVONE]	–	-0.07	0.41	0.63	0.66	–	–	–	–	–	0.65	–	0.31	0.53	–	0.81	0.95	0.8	–	0.88	Growth Rate (U2OS; 0 h, replicate number 2): -0.73; Growth Rate (U2OS; 12 h, replicate number 1): 0.67; Growth Rate (U2OS; 18 h, replicate number 1): 0.92; Growth Rate (Fibroblast; 0 h, replicate number 1): 0.97
CCOC(=O)c1cnn(-c2ccc(NC(=O)C(Cl)=C(Cl)Cl)cc2)c1C(F)(F)F	-0.17	-0.33	0.04	-0.46	-0.43	-0.43	-0.42	–	-0.86	-0.7	–	-0.57	-0.63	-0.52	-0.5	-0.37	-0.51	-0.25	-0.51	-0.13	Growth Rate (U2OS; 0 h, replicate number 2): 0.55; Growth Rate (U2OS; 12 h, replicate number 1): -0.42; Growth Rate (U2OS; 18 h, replicate number 1): -0.49; Growth Rate (Fibroblast; 6 h, replicate number 2): -1; Growth Rate (Fibroblast; 12 h, replicate number 1): -1
COP(=O)(CCC(N)C(=O)O)Oc1cccc(CC(=O)O)c1 (stereo not drawn)	0.98	0.8	–	0.91	–	–	0.93	0.49	–	–	0.74	–	–	–	0.97	–	0.94	–	0.92	–	Growth Rate (Fibroblast; 0 h, replicate number 1): -1; Growth Rate (Fibroblast; 0 h, replicate number 2): -0.57; Growth Rate (Fibroblast; 12 h, replicate number 1): 0.92; Growth Rate (Fibroblast; 18 h, replicate number 1): 0.86; Growth Rate (HEK-293T; 0 h, replicate number 1): 0.66
O=C(Cc1ccccc1)Nc1nnc(N2C[C@H]3C[C@@H]2CN3c2cccnn2)s1 [A-446]	0.34	0.82	0.43	0.59	0.8	0.87	0.77	0.15	0.18	0.19	0.33	0.04	–	0.68	0.83	0.97	–	0.86	0.93	0.94	Growth Rate (U2OS; 0 h, replicate number 2): 0.56; Growth Rate (U2OS; 12 h, replicate number 1): 0.68; Growth Rate (U2OS; 18 h, replicate number 1): 0.54; Growth Rate (Fibroblast; 0 h, replicate number 2): 0.67; Growth Rate (Fibroblast; 6 h, replicate number 2): -0.04; Growth Rate (Fibroblast; 12 h, replicate number 1): 0.45; Growth Rate (Fibroblast; 18 h, replicate number 1): 0.27; Growth Rate (HEK-293T; 0 h, replicate number 1): 0.58; Growth Rate (HEK-293T; 0 h, replicate number 2): -0.11
CCCCOc1c(C(=O)c2c(F)cc(C)cc2F)c[nH]c2nncc1-2	-1	–	–	–	–	–	–	–	–	–	–	–	–	–	–	–	–	–	–	–	Growth Rate (Fibroblast; 0 h, replicate number 1): -1; Growth Rate (HEK-293T; 0 h, replicate number 1): -1
Cc1[nH]nc2ccc(-c3cncc(OCC(N)Cc4ccccc4)c3)cc12 (stereo not drawn)	–	–	–	–	0.7	0.35	0.28	-1	–	–	–	0.73	–	–	–	–	–	0.44	0.9	0.21	Growth Rate (Fibroblast; 0 h, replicate number 2): -0.26; Growth Rate (HEK-293T; 0 h, replicate number 1): -0.76; Growth Rate (HEK-293T; 0 h, replicate number 2): -0.85
Cc1nc2c(cc1F)c(-c1nnc3c(n1)NC(=O)C3(C)C)nn2Cc1cccc(F)c1F	–	0.9	0.58	0.84	0.95	–	–	0.59	–	–	0.94	–	0.97	0.57	0.95	0.74	0.75	0.8	0.79	0.91	Growth Rate (U2OS; 0 h, replicate number 2): 0.99; Growth Rate (Fibroblast; 0 h, replicate number 1): -1; Growth Rate (Fibroblast; 0 h, replicate number 2): 0.67; Growth Rate (Fibroblast; 18 h, replicate number 1): 0.85; Growth Rate (HEK-293T; 0 h, replicate number 1): 0.61; Growth Rate (HEK-293T; 0 h, replicate number 2): 0.48
CNc1nc(-c2cc(C(=O)N3CCN(Cc4ccc(Cl)cc4)CC3)c(Cl)cn2)cs1	-0.54	-0.33	-0.21	0.27	0.37	0.37	0.65	-0.5	-0.28	-0.12	0.23	0.18	0.91	-0.49	0.62	0.01	0.62	0.14	0.69	0.23	Growth Rate (U2OS; 0 h, replicate number 2): -0.41; Growth Rate (U2OS; 12 h, replicate number 1): 0.1; Growth Rate (U2OS; 18 h, replicate number 1): 0.4; Growth Rate (Fibroblast; 0 h, replicate number 1): -1; Growth Rate (Fibroblast; 6 h, replicate number 2): -0.96; Growth Rate (Fibroblast; 12 h, replicate number 1): -0.19; Growth Rate (Fibroblast; 18 h, replicate number 1): -0.06
